From PubChem BioAssay AID328 (DTP/NCI, 2004) come the findings set out here.

For this test, the system named is BDF1 mice, P388 leukemia ip, median survival T/C. Nature of the test: NCI In Vivo Anticancer Drug Screen. Data for tumor model P388 Leukemia (intraperitoneal) in B6D2F1 (BDF1) mice. The settings on record: endpoint: median survival time, higher = longer survival. The method, then: The antitumor activity of compounds was measured in mice bearing transplantable tumors. Survival or tumor size were measured and the results are expressed as the measurement made in the treated group (T) divided by the measurement made in the vehicle treated control group (C). The tumor model used in this assay is P388 Leukemia (intraperitoneal) in B6D2F1 (BDF1) mice

The mark [1] stands for this setting: dose: 100.0 mg/kg/injection, schedule: Q01DX009 (ip), vehicle: saline with Tween-80.
[2] abbreviates: dose: 200.0 mg/kg/injection, schedule: Q01DX009 (ip), vehicle: saline with Tween-80.
Setting [3] is: dose: 400.0 mg/kg/injection, schedule: Q01DX009 (ip), vehicle: saline with Tween-80.
Setting [4] is: dose: 50.0 mg/kg/injection, schedule: Q01DX009 (ip), vehicle: saline with Tween-80.
Setting [5] is: dose: 100.0 mg/kg/injection, schedule: Q04DX003 (ip), vehicle: saline with Tween-80.
The mark [6] stands for this setting: dose: 200.0 mg/kg/injection, schedule: Q04DX003 (ip), vehicle: saline with Tween-80.
Where [7] appears, read: dose: 400.0 mg/kg/injection, schedule: Q04DX003 (ip), vehicle: saline with Tween-80.
The mark [8] stands for this setting: dose: 50.0 mg/kg/injection, schedule: Q04DX003 (ip), vehicle: saline with Tween-80.
[9] abbreviates: dose: 100.0 mg/kg/injection, schedule: Q04DX003 (ip), vehicle: Klucel (hydroxypropylcellulose) (HPC).
The mark [10] stands for this setting: dose: 200.0 mg/kg/injection, schedule: Q04DX003 (ip), vehicle: Klucel (hydroxypropylcellulose) (HPC).
Where [11] appears, read: dose: 400.0 mg/kg/injection, schedule: Q04DX003 (ip), vehicle: Klucel (hydroxypropylcellulose) (HPC).
[12] abbreviates: dose: 50.0 mg/kg/injection, schedule: Q01DX009 (ip), vehicle: other.
The mark [13] stands for this setting: dose: 100.0 mg/kg/injection, schedule: Q01DX009 (ip), vehicle: other.
Where [14] appears, read: dose: 100.0 mg/kg/injection, schedule: Q01DX009 (ip), vehicle: saline.
[15] abbreviates: dose: 200.0 mg/kg/injection, schedule: Q01DX009 (ip), vehicle: saline.

The structures appear in SMILES notation. Inconclusive results and toxic doses are left out.

Consider `CCCN(CCC)CCCCO`, for which the T/C (dose: 22.0 mg/kg/injection, schedule: Q04DX003 (ip), vehicle: saline) was 104 % of control; the T/C (dose: 33.0 mg/kg/injection, schedule: Q04DX003 (ip), vehicle: saline) is 109 % of control; the T/C (dose: 50.0 mg/kg/injection, schedule: Q04DX003 (ip), vehicle: saline) was 104 % of control; the T/C (dose: 75.0 mg/kg/injection, schedule: Q04DX003 (ip), vehicle: saline) was 104 % of control.

Turning to `CC(c1ccccc1)N1COc2ccc3ccccc3c2C1` (stereo not drawn), the T/C under setting [1] was 100 % of control, the T/C under setting [2] is 104 % of control and the T/C under setting [3] is 113 % of control.

For the compound `N#CC(=C=[N-])[n+]1ccccc1`, the T/C is, setting by setting: (dose: 3.12 mg/kg/injection, schedule: Q01DX009 (ip), vehicle: Klucel (hydroxypropylcellulose) (HPC)) 110 % of control; (dose: 6.25 mg/kg/injection, schedule: Q01DX009 (ip), vehicle: Klucel (hydroxypropylcellulose) (HPC)) 110 % of control; (dose: 12.5 mg/kg/injection, schedule: Q01DX009 (ip), vehicle: Klucel (hydroxypropylcellulose) (HPC)) 100 % of control; (dose: 18.0 mg/kg/injection, schedule: Q01DX009 (ip), vehicle: Klucel (hydroxypropylcellulose) (HPC)) 100 % of control; (dose: 28.0 mg/kg/injection, schedule: Q01DX009 (ip), vehicle: Klucel (hydroxypropylcellulose) (HPC)) 115 % of control.

In the case of `O=C(/C=C/c1ccc(OCc2ccccc2)cc1)c1ccccc1F`, the T/C is, setting by setting: under setting [4], 96 % of control; under setting [1], 100 % of control; under setting [2], 96 % of control.

Consider `CN(C)S(=O)(=O)c1ccccc1C(O)(c1ccccc1)c1ccccc1`, for which the T/C under setting [5] is 99 % of control, the T/C under setting [6] is 116 % of control and the T/C under setting [7] is 91 % of control.

Consider `CCC(=O)/C=C/C1=C(C)CCCC1(C)C`, for which the T/C is, setting by setting: under setting [8], 104 % of control; under setting [5], 104 % of control; under setting [6], 95 % of control.

In the case of `O=c1oc(-c2cc([N+](=O)[O-])ccc2Cl)nc2ccccc12`, the T/C runs as follows: (dose: 25.0 mg/kg/injection, schedule: Q04DX003 (ip), vehicle: saline with Tween-80) 95 % of control; under setting [5], 95 % of control.

Turning to `Cc1ccc(S(=O)(=O)N(C)CCC#N)cc1`, the T/C runs as follows: (dose: 100.0 mg/kg/injection, schedule: Q01DX009 (ip), vehicle: Klucel (hydroxypropylcellulose) (HPC)) 90 % of control; under setting [9], 90 % of control; (dose: 200.0 mg/kg/injection, schedule: Q01DX009 (ip), vehicle: Klucel (hydroxypropylcellulose) (HPC)) 100 % of control; under setting [10], 100 % of control; (dose: 400.0 mg/kg/injection, schedule: Q01DX009 (ip), vehicle: Klucel (hydroxypropylcellulose) (HPC)) 110 % of control; under setting [11], 109 % of control.

Regarding `NCCNCC[OH2+].NCCNCC[OH2+].O=S(=O)([O-])[O-].[Cu+2]`, the T/C was 105 % of control (dose: 6.25 mg/kg/injection, schedule: Q01DX009 (ip), vehicle: saline); 108 % of control (dose: 12.5 mg/kg/injection, schedule: Q01DX009 (ip), vehicle: saline); 103 % of control (dose: 25.0 mg/kg/injection, schedule: Q01DX009 (ip), vehicle: saline).

Take `CN(Cc1ccc(Nc2ccccc2)cc1)C1CCCCC1`: the T/C under setting [12] is 113 % of control and the T/C under setting [13] is 160 % of control.

As for `N/C(=N\N=C\c1ccc(-c2ccccc2)cc1)N[N+](=O)[O-]`, the T/C runs as follows: (dose: 25.0 mg/kg/injection, schedule: Q01DX010 (ip), vehicle: carboxymethylcellulose (CMC)) 100 % of control; (dose: 50.0 mg/kg/injection, schedule: Q01DX010 (ip), vehicle: carboxymethylcellulose (CMC)) 100 % of control; (dose: 100.0 mg/kg/injection, schedule: Q01DX010 (ip), vehicle: carboxymethylcellulose (CMC)) 100 % of control; (dose: 200.0 mg/kg/injection, schedule: Q01DX010 (ip), vehicle: carboxymethylcellulose (CMC)) 100 % of control.

For `O=[N+]([O-])c1cccc(/C=C/c2cc(N(CCO)CCO)c3ccccc3n2)c1`, the T/C under setting [4] is 91 % of control, the T/C under setting [1] was 89 % of control and the T/C under setting [2] was 94 % of control.

On to `COc1ccc(CN(CC(=O)O)S(C)(=O)=O)cc1`, for which the T/C is, setting by setting: (dose: 100.0 mg/kg/injection, schedule: Q04DX003 (ip), vehicle: other) 103 % of control; (dose: 200.0 mg/kg/injection, schedule: Q04DX003 (ip), vehicle: other) 100 % of control; (dose: 400.0 mg/kg/injection, schedule: Q04DX003 (ip), vehicle: other) 109 % of control.

For `O=C(NC(=O)OCCCCCl)Nc1cccc(Cl)c1`, the T/C is 100 % of control under setting [4], 98 % of control under setting [1] and 88 % of control under setting [2].

For the compound `CC1(C)CC(=O)CC(C)(C)N1O`, the T/C was 100 % of control under setting [9], 100 % of control under setting [10] and 104 % of control under setting [11].

For the compound `COC(=O)CCCCCC(O)C1CCC2OC(=O)CC21C` (stereo not drawn), the T/C runs as follows: under setting [5], 100 % of control; under setting [6], 100 % of control; under setting [7], 100 % of control.

Turning to `CC(C)=CCC1=C(OC2OC(CO)C(O)C(O)C2O)C(=O)c2ccccc2C1=O` (stereo not drawn), the T/C was 123 % of control (dose: 1.56 mg/kg/injection, schedule: Q01DX009 (ip), vehicle: saline with Tween-80) and 160 % of control (dose: 3.13 mg/kg/injection, schedule: Q01DX009 (ip), vehicle: saline with Tween-80).

`CC1(C)C2=CCCC3(OCCO3)C2(C)CCC1O` (stereo not drawn): the T/C is, setting by setting: under setting [1], 100 % of control; under setting [2], 100 % of control; under setting [3], 90 % of control.

As to `O=C(OCC1OC(n2cnc3c(=O)[nH]c(=O)[nH]c32)C(OC(=O)c2ccccc2)C1OC(=O)c1ccccc1)c1ccccc1` (stereo not drawn), the T/C was 100 % of control (dose: 50.0 mg/kg/injection, schedule: Q01DX010 (ip), vehicle: saline with Tween-80); 90 % of control (dose: 100.0 mg/kg/injection, schedule: Q01DX010 (ip), vehicle: saline with Tween-80); 90 % of control (dose: 200.0 mg/kg/injection, schedule: Q01DX010 (ip), vehicle: saline with Tween-80); 90 % of control (dose: 400.0 mg/kg/injection, schedule: Q01DX010 (ip), vehicle: saline with Tween-80).

`COC(=O)C(C)(OC)OC`: the T/C is 100 % of control under setting [14]; 100 % of control under setting [15]; 100 % of control (dose: 400.0 mg/kg/injection, schedule: Q01DX009 (ip), vehicle: saline).

In the case of `CC(C)(C)CN1CN(CC(C)(C)C)CN(CC(C)(C)C)C1`, the T/C (dose: 100.0 mg/kg/injection, schedule: Q04DX002 (ip), vehicle: saline with Tween-80) was 94 % of control; the T/C (dose: 200.0 mg/kg/injection, schedule: Q04DX002 (ip), vehicle: saline with Tween-80) was 97 % of control; the T/C (dose: 400.0 mg/kg/injection, schedule: Q04DX002 (ip), vehicle: saline with Tween-80) was 94 % of control.

For the compound `Cn1nc(NC(=O)C(F)(F)F)c2ncc(-c3ccccc3)nc21`, the T/C runs as follows: under setting [8], 105 % of control; under setting [5], 100 % of control; under setting [6], 100 % of control.

With `CC(C)(C)OC(=O)NNC(c1ccccc1)c1ccccc1`, the T/C (dose: 50.0 mg/kg/injection, schedule: Q01DX001 (ip), vehicle: Klucel (hydroxypropylcellulose) (HPC)) was 91 % of control; the T/C under setting [12] is 105 % of control; the T/C (dose: 100.0 mg/kg/injection, schedule: Q01DX001 (ip), vehicle: Klucel (hydroxypropylcellulose) (HPC)) was 91 % of control; the T/C under setting [13] is 110 % of control; the T/C under setting [9] was 105 % of control; the T/C (dose: 200.0 mg/kg/injection, schedule: Q01DX001 (ip), vehicle: Klucel (hydroxypropylcellulose) (HPC)) was 95 % of control. Moreover, the T/C is 100 % of control (dose: 200.0 mg/kg/injection, schedule: Q01DX009 (ip), vehicle: other); 110 % of control under setting [10]; 105 % of control under setting [11].

Take `CC(C)(N)CNC(C)(C)CO`: the T/C is, setting by setting: (dose: 50.0 mg/kg/injection, schedule: Q01DX009 (ip), vehicle: saline) 95 % of control; under setting [14], 111 % of control; under setting [15], 92 % of control.
